The source of these data is patent US11926614B2, “1,2,4-triazole derivatives as tankyrase inhibitors” (priority 2018, dated 2024).

In one test the target is TNKS2 (Homo sapiens (Human), UniProt Q9H2K2). The experiment in a line: Biochemical IC50 TNKS2. From the text:
(§1) XLfit (idbs) was used to determine the IC50-values in inhibition experiments. The following formula was chosen to fit the data points (Langmuir Binding Isotherm): fit=((A+(B*x))+4(C−B)*(1−exp((−1*D)*x)))/D)), res=(y−fit)

For another test, the system named is HEK293. The experiment in a line: Cellular IC50 HEK293. The format is cell-based.
Excerpt: as §1

Setting [1] is: read-out: Biochemical IC50 TNKS2.
[2] abbreviates: Homo sapiens, HEK293, HEK293; read-out: Cellular IC50 HEK293.
The mark [3] stands for this setting: Homo sapiens, HEK293; read-out: Cellular IC50 HEK293.

Where two headings read alike, the source gives them in different places.

Sequence of TNKS2 (Q9H2K2 whole entry): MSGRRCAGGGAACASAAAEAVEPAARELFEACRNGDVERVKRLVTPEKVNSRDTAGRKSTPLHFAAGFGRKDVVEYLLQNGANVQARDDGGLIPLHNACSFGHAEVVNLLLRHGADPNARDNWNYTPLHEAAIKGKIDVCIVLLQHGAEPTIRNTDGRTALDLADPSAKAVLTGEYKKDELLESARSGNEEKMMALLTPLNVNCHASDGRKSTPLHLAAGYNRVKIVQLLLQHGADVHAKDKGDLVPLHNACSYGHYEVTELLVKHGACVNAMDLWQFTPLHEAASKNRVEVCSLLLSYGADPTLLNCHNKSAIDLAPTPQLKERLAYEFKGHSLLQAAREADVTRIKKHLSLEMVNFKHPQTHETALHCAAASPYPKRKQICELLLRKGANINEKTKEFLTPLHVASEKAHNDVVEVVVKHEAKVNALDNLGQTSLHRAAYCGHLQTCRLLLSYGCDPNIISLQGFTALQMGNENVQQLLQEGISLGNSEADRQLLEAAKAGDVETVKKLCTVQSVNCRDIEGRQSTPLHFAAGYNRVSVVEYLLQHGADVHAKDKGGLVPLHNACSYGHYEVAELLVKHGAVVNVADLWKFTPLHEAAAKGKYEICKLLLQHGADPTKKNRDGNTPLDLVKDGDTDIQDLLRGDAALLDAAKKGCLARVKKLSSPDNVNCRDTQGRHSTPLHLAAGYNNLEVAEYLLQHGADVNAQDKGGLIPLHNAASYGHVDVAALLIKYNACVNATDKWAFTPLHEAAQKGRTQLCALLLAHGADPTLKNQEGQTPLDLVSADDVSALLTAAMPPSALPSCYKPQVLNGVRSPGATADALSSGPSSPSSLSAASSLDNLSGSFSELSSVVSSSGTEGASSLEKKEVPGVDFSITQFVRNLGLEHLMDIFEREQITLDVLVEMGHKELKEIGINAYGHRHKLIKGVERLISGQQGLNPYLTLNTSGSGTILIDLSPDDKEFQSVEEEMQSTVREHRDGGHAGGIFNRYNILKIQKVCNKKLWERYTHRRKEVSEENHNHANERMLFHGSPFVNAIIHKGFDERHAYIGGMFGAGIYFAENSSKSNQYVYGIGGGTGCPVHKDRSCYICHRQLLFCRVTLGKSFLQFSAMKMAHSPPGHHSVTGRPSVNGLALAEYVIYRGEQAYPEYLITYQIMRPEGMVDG

Usually IC50 stands for the point on the concentration scale where inhibition reaches its midpoint. For `CCOc1ccc(-c2nnc([C@H]3C[C@H](NC(=O)c4cccc(C)n4)C3)n2-c2ccccc2F)nc1` [Example 119, N-((1S,3r)-3-(5-(5-ethoxypyridin-2-yl)-4-(2-fluorophenyl)-4H-1,2,4-triazol-3-yl)cyclobutyl)-6-methylpicolinamide], the 50% inhibitory concentration (IC50) was determined as 5 nM at TNKS2 (setting [1]) and 39 nM with HEK293 (setting [2]).

Turning to `CCOc1ccc(-c2nnc([C@H]3C[C@H](NC(=O)c4ccn(C)n4)C3)n2-c2ccccc2F)nc1` [Example 120, N-((1S,3r)-3-(5-(5-ethoxypyridin-2-yl)-4-(2-fluorophenyl)-4H-1,2,4-triazol-3-yl)cyclobutyl)-1-methyl-1H-pyrazole-3-carboxamide], the 50% inhibitory concentration (IC50) at TNKS2 (setting [1]) was found to be 18 nM; in the test on HEK293 (setting [2]), 65 nM.

Turning to `Cc1ccc(-n2c(-c3nccs3)nnc2[C@H]2C[C@H](NC(=O)c3ccnc4cccnc34)C2)s1` [Example 89, N-((1r,3r)-3-(4-(5-methylthiophen-2-yl)-5-(thiazol-2-yl)-4H-1,2,4-triazol-3-yl)cyclobutyl)-1,5-naphthyridine-4-carboxamide], the figures for the IC50 on TNKS2 (setting [1]) and with HEK293 (setting [2]) were 2.7 nM and 2.4 nM, respectively.

With `COc1ccc(C(=O)N[C@H]2C[C@H](c3nnc(-c4ccncn4)n3-c3ccccc3Cl)C2)nc1` [Example 131, N-((1R,3r)-3-(4-(2-chlorophenyl)-5-(pyrimidin-4-yl)-4H-1,2,4-triazol-3-yl)cyclobutyl)-5-methoxypicolinamide], the IC50 at TNKS2 (setting [1]) is 4.5 nM; in the test on HEK293 (setting [2]) it was 0.66 nM.

Turning to `CCOc1ccc(-c2nnc([C@H]3C[C@H](NC(=O)c4ccnc5cc(F)cnc45)C3)n2-c2ccccc2F)nc1` [Example 57, N-((1S,3r)-3-(5-(5-ethoxypyridin-2-yl)-4-(2-fluorophenyl)-4H-1,2,4-triazol-3-yl)cyclobutyl)-7-fluoro-1,5-naphthyridine-4-carboxamide], the IC50 at TNKS2 (setting [1]) was 2 nM; in the test on HEK293 (setting [3]), 0.17 nM.

As for `O=C(N[C@H]1C[C@H](c2nnc(-c3nccs3)n2-c2cccnc2)C1)c1cccc2cccnc12` [Example 114, N-((1r,3r)-3-(4-(pyridin-3-yl)-5-(thiazol-2-yl)-4H-1,2,4-triazol-3-yl)cyclobutyl)quinoline-8-carboxamide], the IC50 at TNKS2 (setting [1]) was determined as 20 nM; with HEK293 (setting [2]) it was 230 nM.

Consider `O=C(N[C@H]1C[C@H](c2nnc(-c3nccs3)n2-c2ccccc2Cl)C1)c1ccc(F)cc1` [Example 44, N-((1S,3r)-3-(4-(2-chlorophenyl)-5-(thiazol-2-yl)-4H-1,2,4-triazol-3-yl)cyclobutyl)-4-fluorobenzamide], for which the IC50 is 13 nM at TNKS2 (setting [1]) and 50 nM in the test with HEK293 (setting [2]).

For `CCOc1ccc(-c2nnc([C@H]3C[C@H](NC(=O)c4ccccc4)C3)n2-c2ccccc2Cl)nc1` [Example 136, N-((1S,3r)-3-(4-(2-chlorophenyl)-5-(5-ethoxypyridin-2-yl)-4H-1,2,4-triazol-3-yl)cyclobutyl)benzamide], the IC50 on TNKS2 (setting [1]) came to 6.6 nM; with HEK293 (setting [2]) it was 16 nM.

In the case of `CCOc1ccc(-c2nnc([C@H]3C[C@H](NC(=O)c4ccc5cc(F)ccc5n4)C3)n2-c2ccccc2F)nc1` [Example 155, N-((1S,3r)-3-(5-(5-ethoxypyridin-2-yl)-4-(2-fluorophenyl)-4H-1,2,4-triazol-3-yl)cyclobutyl)-6-fluoroquinoline-2-carboxamide], the IC50 at TNKS2 (setting [1]) turned out to be 9.1 nM; in the test with HEK293 (setting [2]) it was 12 nM.

On to `CCOc1ccc(-c2nnc([C@H]3C[C@H](NC(=O)c4nn(C)c5ccccc45)C3)n2-c2ccccc2F)nc1` [Example 153, N-((1S,3r)-3-(5-(5-ethoxypyridin-2-yl)-4-(2-fluorophenyl)-4H-1,2,4-triazol-3-yl)cyclobutyl)-1-methyl-1H-indazole-3-carboxamide], for which the IC50 at TNKS2 (setting [1]) stood at 13 nM; in the test on HEK293 (setting [2]), 56 nM.

With `O=C(NC12CC(c3nnc(-c4ccncn4)n3-c3ccccc3Cl)(C1)C2)c1ccnc2cccnc12` [Example 21, N-(3-(4-(2-chlorophenyl)-5-(pyrimidin-4-yl)-4H-1,2,4-triazol-3-yl)bicyclo[1.1.1]pentan-1-yl)-1,5-naphthyridine-4-carboxamide], the IC50 was 1.8 nM on TNKS2 (setting [1]) and 0.5 nM in the test on HEK293 (setting [2]).

For the compound `CCOc1ccc(-c2nnc([C@H]3C[C@H](NC(=O)c4ccc5ncccc5n4)C3)n2-c2cccnc2)nc1` [Example 163, N-((1r,3r)-3-(5-(5-ethoxypyridin-2-yl)-4-(pyridin-3-yl)-4H-1,2,4-triazol-3-yl)cyclobutyl)-1,5-naphthyridine-2-carboxamide], the IC50 on TNKS2 (setting [1]) is 14 nM; in the test with HEK293 (setting [2]), 71 nM.

On to `CCOc1ccc(-c2nnc(C34CC(NC(=O)c5ccccn5)(C3)C4)n2-c2ccccc2)nc1` [Example 66, N-(3-(5-(5-ethoxypyridin-2-yl)-4-phenyl-4H-1,2,4-triazol-3-yl)bicyclo[1.1.1]pentan-1-yl)picolinamide], for which the half-maximal inhibitory concentration (IC50) is 35 nM on TNKS2 (setting [1]) and 122 nM in the test with HEK293 (setting [2]).

As for `Cc1cccc(-c2nnc([C@H]3C[C@H](NC(=O)c4cccc5nccnc45)C3)n2-c2ccccc2F)n1` [Example 201, N-((1S,3r)-3-(4-(2-fluorophenyl)-5-(6-methylpyridin-2-yl)-4H-1,2,4-triazol-3-yl)cyclobutyl)quinoxaline-5-carboxamide], the IC50 is 1.7 nM at TNKS2 (setting [1]) and 1.5 nM in the test with HEK293 (Homo sapiens, HEK293, read-out: Cellular IC50 HEK293).

In the case of `[2H]C([2H])([2H])C([2H])([2H])Oc1ccc(-c2nnc([C@H]3C[C@H](NC(=O)c4cnn5ccccc45)C3)n2-c2ccccc2F)nc1` [Example 142, N-((1S,3r)-3-(5-(5-(ethoxy-d5)pyridin-2-yl)-4-(2-fluorophenyl)-4H-1,2,4-triazol-3-yl)cyclobutyl)pyrazolo[1,5-a]pyridine-3-carboxamide], the figures for the IC50 against TNKS2 and in the test on HEK293 (setting [2]) were 23 nM and 55 nM, respectively.

For `CCOc1ccc(-c2nnc([C@H]3C[C@H](NC(=O)c4nc5ccccc5[nH]4)C3)n2-c2ccc(C)s2)nc1` [Example 143, N-((1r,3r)-3-(5-(5-ethoxypyridin-2-yl)-4-(5-methylthiophen-2-yl)-4H-1,2,4-triazol-3-yl)cyclobutyl)-1H-benzo[d]imidazole-2-carboxamide], the IC50 on TNKS2 (setting [1]) came out at 11 nM; in the test on HEK293 (setting [2]), 94 nM.

As for `CCOc1ccc(-c2nnc([C@H]3C[C@H](NC(=O)c4ccnc5cccnc45)C3)n2-c2ccccc2F)nc1` [Example 55, N-((1S,3r)-3-(5-(5-ethoxypyridin-2-yl)-4-(2-fluorophenyl)-4H-1,2,4-triazol-3-yl)cyclobutyl)-1,5-naphthyridine-4-carboxamide], the IC50 on TNKS2 (setting [1]) worked out at 2 nM; in the test with HEK293 (setting [3]) it was 0.814 nM.

For `O=C(N[C@H]1C[C@H](c2nnc(-c3nccs3)n2-c2cccnc2)C1)c1ccccn1` [Example 109, N-((1r,3r)-3-(4-(pyridin-3-yl)-5-(thiazol-2-yl)-4H-1,2,4-triazol-3-yl)cyclobutyl)picolinamide], the IC50 at TNKS2 (setting [1]) is 800 nM; with HEK293 (setting [2]), 4700 nM.

Regarding `CCOc1ccc(-c2nnc([C@H]3C[C@H](NC(=O)c4cccc5cc[nH]c45)C3)n2-c2ccccc2F)nc1` [Example 115, N-((1S,3r)-3-(5-(5-ethoxypyridin-2-yl)-4-(2-fluorophenyl)-4H-1,2,4-triazol-3-yl)cyclobutyl)-1H-indole-7-carboxamide], the IC50 at TNKS2 (setting [1]) stood at 10 nM; in the test on HEK293 (setting [2]), 57 nM.
